Experimental data from US6833372B2, “Non-peptide GnRH agents, Pharmaceutical compositions, and methods for their use” (Pfizer, Inc., priority 2002, dated 2004).

Each compound was assayed against T1, human GnRH receptors (Homo sapiens, UniProt P30968) (assay: Radioligand binding: inhibition of 125I-GnRH-A binding to human GnRH receptor membranes). Conditions: HEK 293 cell membranes.
T1 construct: expressed in transfected cells; host or cells: HEK 293 cells, stably transfected; membranes
T1 sequence (P30968 1-328): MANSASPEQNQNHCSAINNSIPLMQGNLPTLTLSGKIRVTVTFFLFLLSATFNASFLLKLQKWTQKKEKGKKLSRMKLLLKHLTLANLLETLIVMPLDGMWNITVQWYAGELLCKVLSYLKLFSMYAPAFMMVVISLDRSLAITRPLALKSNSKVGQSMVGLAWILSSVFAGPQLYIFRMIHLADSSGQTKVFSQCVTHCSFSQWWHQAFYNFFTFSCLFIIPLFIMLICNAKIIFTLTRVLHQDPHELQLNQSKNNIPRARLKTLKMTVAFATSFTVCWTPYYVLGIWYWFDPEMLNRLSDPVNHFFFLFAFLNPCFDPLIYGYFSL
Protocol: HEK 293 cells stably transfected with mouse or human GnRH receptors as described above were grown in Dulbecco's high-glucose, modified Eagle's medium (DMEM) supplemented with 0.2% G418, 10% fetal bovine serum (FBS) and 100 U/mL penicillin/streptomycin. GH3 cells stably transfected with the rat GnRH receptor (GGH3) were provided by Dr. William Chin (Harvard Medical School, Boston, Mass.). These cells have been extensively characterized previously (Kaiser et al., 1997). The cells were grown in low glucose DMEM containing: 100U/mL penicillin/streptomycin, 0.6% G418 and 10% heat-inactivated FBS.
HEK 293 cells containing mouse or human receptors, or rat pituitaries (Pel Freez Biologicals, Rogers, Ark.) were homogenized in buffer A containing: 50 mM Tris (pH 7.4), 0.32 M sucrose, 2 mM EGTA, 1 mM PMSF, 5 μg/ml aprotinen, 5 μg/ml Pepstatin A, and 1 μg/ml leupeptin. Homogenized cells were centrifuged at 4° C. at 20,000×g for 25 minutes, re-suspended in buffer A and re-centrifuged at 4° C. at 20,000×g for an additional 25 minutes. Total membrane protein was determined with a BCA kit (Pierce, Rockford, Ill.). Membranes were stored at −70° C. at a final membrane protein concentration of approximately 5 mg/ml.
The radioiodinated agonist analog of GnRH, [des-Gly^10,D-Ala^6]GnRH ethylamide (^125I-GnRH-A), was used as the radioligand. […] The reaction mixture was vortexed and incubated for 1 minute at room temperature. After one minute, the mixture was vortexed and allowed to incubate for an additional minute. 2 ml of 0.5 M acetic acid/1% BSA was added to the reaction tube and the mixture was added to a C18 Sep-Pak cartridge. The cartridge was washed with subsequent washes of 5 ml H2O and 5 ml 0.5 M acetic acid and then eluted with 5×1 ml of 60% CH3CN/40% 0.5 M acetic acid. The eluate was diluted with 3× volume of HPLC buffer A (0.1% TFA in H2O) and loaded onto a C18 column. The iodinated product was eluted over 20-25 min with a gradient of 25-100% CH3CN containing 0.1% TFA. The radioactive fractions (750 μl/fraction) were collected into clean polypropylene tubes containing 100 μl of 10% BSA. Fractions were assessed for biological activity by radioligand binding. Specific activity of the radioligand was approximately 2200 Ci/mmol.
Membranes were diluted to 0.01-0.5 mg/ml (depending upon the species of receptor) with assay buffer containing 50 mM HEPES (pH 7.4), 1 mM EDTA, 2.5 mM MgCl2, and 0.1% BSA. Membranes (diluted to utilize similar receptor numbers between assays) were incubated with approximately 0.04-0.06 nM ^125I-GnRH-A in the presence or absence of competing agents (0.1-10,000 nM) in a total volume of 200 μl in 96-well polypropylene plates for 1 hour at room temperature. Assays were stopped by rapid filtration onto 96-well GF/C filters soaked in 0.1% polyethylenimine (PEI) utilizing a Packard 96-well cell harvester. Filters were washed three times with ice-cold PBS (50 mM NaPO4, 0.9% NaCl, 2 mM MgCl2, and 0.02% NaN3, pH 7.4). 35 μl of scintillation cocktail was added to each filter well and filters were counted on a Packard Topcount. Control dose-response curves were generated to GnRH (0.1 nM-100 nM) in each competition binding experiment. Ki values were calculated from IC50 values according to Cheng et al., Biochemical Pharmacol. 22: 3099-3108, 1973. [formula]

SMILES | Ki [nM]
COc1nc(N2CCC[C@H]2C(=O)OC(C)(C)C)nc(OC)c1NC(=O)c1ccc(Cc2cc3c(cc2C)C(C)(C)OC3(C)C)o1 [Example D24, tert-Butyl 1-[4,6-dimethoxy-5-({5-[(1,1,3,3,6-pentamethyl-1,3-dihydro-2-benzofuran-5-yl)methyl]-2-furoyl}amino)pyrimidin-2-yl]prolinate] | 360
C=C(C)CN(Cc1ccco1)c1nc(OC)c(NC(=O)c2ccc(Cc3cc4c(cc3C)C(C)(C)OC4(C)C)o2)c(OC)n1 [Example D25, N-{2-[(2-Furylmethyl)(2-methylprop-2-enyl)amino]-4,6-dimethoxypyrimidin-5-yl}-5-[(1,1,3,3,6-pentamethyl-1,3-dihydro-2-benzofuran-5-yl)methyl]-2-furamide] | 460
COc1nc(N2CCN(CCC#N)CC2)nc(OC)c1NC(=O)c1ccc(Cc2cc3c(cc2C)C(C)(C)OC3(C)C)o1 [Example D26, N-{2-[4-(2-cyanoethyl)piperazin-1-yl]-4,6-dimethoxy-pyrimidin-5-yl}-5-[(1,1,3,3,6-pentamethyl-1,3-dihydro-2-benzofuran-5-yl)methyl]-2-furamide] | 84
COc1nc(N(C)CC(=O)O)nc(OC)c1NC(=O)c1ccc(Cc2cc3c(cc2C)C(C)(C)OC3(C)C)o1 [Example D27, N-[4,6-Dimethoxy-5-({5-[(1,1,3,3,6-pentamethyl-1,3-dihydro-2-benzofuran-5-yl)methyl]-2-furoyl}amino)pyrimidin-2-yl]-N-methylglycine] | 250
COc1nc(NCc2ccccc2Br)nc(OC)c1NC(=O)c1ccc(Cc2cc3c(cc2C)C(C)(C)OC3(C)C)o1 [Example D28, N-{2-[(2-Bromobenzyl)amino]-4,6-dimethoxypyrimidin-5-yl}-5-[(1,1,3,3,6-pentamethyl-1,3-dihydro-2-benzofuran-5-yl)methyl]-2-furamide] | 30
COc1nc(N(C)Cc2cccc(C)n2)nc(OC)c1NC(=O)c1ccc(Cc2cc3c(cc2C)C(C)(C)OC3(C)C)o1 [Example D29, N-(4,6-Dimethoxy-2-{methyl[(6-methylpyridin-2-yl)methyl]amino}pyrimidin-5-yl)-5-[(1,1,3,3,6-pentamethyl-1,3-dihydro-2-benzofuran-5-yl)methyl]-2-furamide] | 54
COc1nc(N2CCN(CC(=O)N(C)C)CC2)nc(OC)c1NC(=O)c1ccc(Cc2cc3c(cc2C)C(C)(C)OC3(C)C)o1 [Example D30, N-(2-{4-[2-(Dimethylamino)-2-oxoethyl]piperazin-1-yl}4,6-dimethoxypyrimidin-5-yl)-5-[(1,1,3,3,6-pentamethyl-1,3-dihydro-2-benzofuran-5-yl)methyl]-2-furamide] | 46
COc1nc(NC2CCCCC2C2CCCCC2)nc(OC)c1NC(=O)c1ccc(Cc2cc3c(cc2C)C(C)(C)OC3(C)C)o1 (stereo not shown) [Example D31, N-{2-[1,1′-Bi(cyclohexyl)-2-ylamino]4,6-dimethoxy-pyrimidin-5-yl}-5-[(1,1,3,3,6-pentamethyl-1,3-dihydro-2-benzofuran-2-benofuran-5-yl)methyl]-2-furamide] | 6700
COc1nc(N[C@@H]2CCC[C@H]2OCc2ccccc2)nc(OC)c1NC(=O)c1ccc(Cc2cc3c(cc2C)C(C)(C)OC3(C)C)o1 [Example D32, N-(2-{[(1R,2R)-2-(Benzyloxy)cyclopentyl]amino}-4,6-dimethoxypyrimidin-5-yl)-5-[(1,1,3,3,6-pentamethyl-1,3-dihydro-2-benzofuran-5-yl)methyl]-2-furamide] | 22
COc1nc(NC2CCN(Cc3ccccc3)CC2)nc(OC)c1NC(=O)c1ccc(Cc2cc3c(cc2C)C(C)(C)OC3(C)C)o1 [Example D33, N-{2-[(1-Benzylpiperidin-4-yl)amino]-4,6-dimethoxypyrimidin-5-yl}-5-[(1,1,3,3,6-pentamethyl-1,3-dihydro-2-benzofuran-5-yl)methyl]-2-furamide] | 46
COc1cc(CNc2nc(OC)c(NC(=O)c3ccc(Cc4cc5c(cc4C)C(C)(C)OC5(C)C)o3)c(OC)n2)cc(OC)c1OC [Example D34, N-{4,6-Dimethoxy-2-[(3,4,5-trimethoxybenzyl)amino]-pyrimidin-5-yl}-5-[(1,1,3,3,6-pentamethyl-1,3-dihydro-2-benzofuran-5-yl)methyl]-2-furamide] | 14
COc1nc(NCCNC2C3CC4CC(C3)CC2C4)nc(OC)c1NC(=O)c1ccc(Cc2cc3c(cc2C)C(C)(C)OC3(C)C)o1 (stereo not shown) [Example D35, N-(2-{[2-(2-Adamantylamino)ethyl]amino}-4,6-dimethoxypyrimidin-5-yl)-5-[(1,1,3,3,6-pentamethyl-1,3-dihydro-2-benzofuran-5-yl)methyl]-2-furamide] | 2.6
COc1nc(NCc2ccc(C(F)(F)F)nc2)nc(OC)c1NC(=O)c1ccc(Cc2cc3c(cc2C)C(C)(C)OC3(C)C)o1 [Example D36, N-[4,6-Dimethoxy-2-({[6-(trifluoromethyl)pyridin-3-yl]-methyl}amino)pyrimidin-5-yl]-5-[(1,1,3,3,6-pentamethyl-1,3-dihydro-2-benzofuran-5-yl)methyl]-2-furamide] | 87
CCCCN(CCC#N)c1nc(OC)c(NC(=O)c2ccc(Cc3cc4c(cc3C)C(C)(C)OC4(C)C)o2)c(OC)n1 [Example D37, N-{2-[Butyl(2-cyanoethyl)amino]-4,6-dimethoxypyrimidin-5-yl}-5-[(1,1,3,3,6-pentamethyl-1,3-dihydro-2-benzofuran-5-yl)methyl]-2-furamide] | 41
COc1nc(N2CCN(c3ccccc3F)CC2)nc(OC)c1NC(=O)c1ccc(Cc2cc3c(cc2C)C(C)(C)OC3(C)C)o1 [Example D43, N-{2-[4-(2-Fluorophenyl)piperazin-1-yl]-4,6-dimethoxypyrimidin-5-yl}-5-[(1,1,3,3,6-pentamethyl-1,3-dihydro-2-benzofuran-5-yl)methyl]-2-furamide] | 160
COc1nc(N(Cc2ccccn2)Cc2ccccn2)nc(OC)c1NC(=O)c1ccc(Cc2cc3c(cc2C)C(C)(C)OC3(C)C)o1 [Example D45, N-{2-[Bis(pyridin-2-ylmethyl)amino]-4,6-dimethoxy-pyrimidin-5-yl}-5-[(1,1,3,3,6-pentamethyl-1,3-dihydro-2-benzofuran-5-yl)methyl]-2-furamide] | 200
COc1nc(N2CCN(CCN3CCOCC3)CC2)nc(OC)c1NC(=O)c1ccc(Cc2cc3c(cc2C)C(C)(C)OC3(C)C)o1 [Example D46, N-{4,6-Dimethoxy-2-(4-(2-morpholin-4-ylethyl)piperazin-1-yl]pyrimidin-5-yl}-5-[(1,1,3,3,6-pentamethyl-1,3-dihydro-2-benzofuran-5-yl)methyl]-2-furamide] | 19
COc1nc(N(CCN(C)C)Cc2ccc(F)cc2)nc(OC)c1NC(=O)c1ccc(Cc2cc3c(cc2C)C(C)(C)OC3(C)C)o1 [Example D47, N-{2-[[2-(Dimethylamino)ethyl](4-fluorobenzyl)amino]-4,6-dimethoxypyrimidin-5-yl}-5-[(1,1,3,3,6-pentamethyl-1,3-dihydro-2-benzofuran-5-yl)methyl]-2-furamide] | 79
CCc1ccc(CN(CCCO)c2nc(OC)c(NC(=O)c3ccc(Cc4cc5c(cc4C)C(C)(C)OC5(C)C)o3)c(OC)n2)cc1 [Example D48, N-{2-[(4-Ethylbenzyl)(3-hydroxypropyl)amino]-4,6-dimethoxypyrimidin-5-yl}-5-[(1,1,3,3,6-pentamethyl-1,3-dihydro-2-benzofuran-5-yl)methyl]-2-furamide] | 240
